Assay results reported in paper PMC9166630, “SAR Probing of KX2-391 Provided Analogues With Juxtaposed Activity Profile Against Major Oncogenic Kinases” (Frontiers in Oncology, 2022).

Assays:
[1] = system: Lck; assay: PamChip tyrosine kinase microarray, Lck; assay type: biochemical, human; conditions: 4e 0.1 µM, HL60 lysate
Procedure: (§1) The changes in kinase activities induced by treatment with 4e were monitored within the HL60 cell lines using PamGene’s (Hertogenbosch, Netherlands) PamChip® peptide microarray profiler, which quantifies the activities of 144 tyrosine kinases (YK) ([29], [30]) (Figure 7). Results are provided as a log fold change (LFC) heatmap and Mean Kinase Statistic. From the LFC it is apparent that compound 4e, at a concentration of 0.1 µM, induced sizable changes to the activity of several kinases within the cell signaling YK profile (Figure 7A).
(§2) An Upstream Kinase tool was used to generate a putative list of kinases responsible for phosphorylating the phospho-sites on the PamChip (Figure 7B) ([31]). It is an interpretation and is highly dependent on the contents of the underlying phosphorylation databases. A Kinase Score was used for ranking kinases based on their significance and specificity in terms of the set of peptides used for the corresponding kinase. Kinase Statistics indicates the overall change of the peptide set that represents the kinase. Kinase statistics value <0 indicates lower kinase activity in the compound spiked lysate and vice versa ([32], [33]). Table 5 lists the 20 most changed kinases within treated HL60 cell lysates by 0.1 μM 4e, ranked according to their Kinase Score.
(§3) The two multiple-kinase tests (PamChip and Phosphokinase Profiler) provided strong evidence of very minor involvement of Src in the cellular activities of 4e. However, the question must be raised about the effect of the 4e on other SRC family kinase (SFK). To address this point, we must highlight that both R&D phosphokinase profiler and PamChip feature Yes, Fgr, Lyn, Lck and Src while Fyn, Hck, Blk and Frk activities are tested in the PamChip only. The signals of SFKs in the R&D Phosphokinase Profiler were too weak to detect in both untreated (control) and 4e-treated HL60 cells. In PamChip assay, most of SFK’s were not ranked in the top 20 affected kinases (Table 5). In addition, their Specificity Score were very low (Table 6) indicating their marginal importance to the cell killing activities of 4e. Fgr kinase which ranked 7th in the list (Table 5) was the only SFK member that seems to be affected by the compound, albeit with low Specificity Score (1.03).
(§4) The compound 4e was spiked into HL60 cell lysate at different concentrations (0.001, 0.01, 0.1, 1, 10 and 50 μM). In addition, DMSO was also spiked in HL60 lysate at low concentration (2% v/v) as control. Samples were profiled on PamGene’s Tyrosine Kinase (PTK) arrays in technical replicates, covering a total of 196 phosphorylation sites. Frozen HL60 cultured cell pellet was sent to PamGene. […] Protein concentration was measured using standard Bradford assay as per PamGene SOPs. […]

[2] = system: Blk; assay: PamChip tyrosine kinase microarray, Blk; assay type: biochemical, human; conditions: 4e 0.1 µM, HL60 lysate
Procedure: as §1, §2, §3, §4

[3] = system: HSP27; assay: Human phosphokinase array, HSP27; assay type: cell-based
From the text: The kinome tree representation (Figure 7C), which was generated by raising the Kinase Score cut-off to >1.2, confirmed that, unlike tirbanibulin and our prototype molecule KX1-136, 4e’s effects were more observable on kinases other than the Src family such as the Eph and TEC families. […] Therefore, we screened compound 4e using the Human Phospho-Kinase Array® kit from R&D systems (Minneapolis, MN, USA). In this system, 35 phosphorylated YK and serine-threonine kinase (STK) enzymes in the untreated (control) and treated (test) HL60 cell lysates were captured on nitrocellulose membrane, pre-spotted with phosphokinase-specific capture antibodies, and then visualized by detection antibody cocktails (Figure 8). The difference in the spot intensity between untreated (control) and treated cells is proportional to change in the amount of the phosphorylated protein induced by 4e.
The phosphorylation profile of 48 kinases was performed using the Proteome Profiler Human Phospho-Kinase Antibody Array Kit by R&D Systems (Minneapolis, MN, USA) according to the protocol. Briefly, the total cellular protein was extracted using the Lysis buffer and was quantified using Bio-Rad DC Protein Assay kit (Hercules, CA, USA). Nitrocellulose membrane set (A&B), pre-spotted with kinase-specific capture antibodies, were first blocked with Array Buffer-1 at RT for 30 min on a rocking platform shaker. Approximately 600 µg of protein concentrate was diluted in the buffer provided and was added onto the membrane set, and the membranes were incubated overnight at 4°C in an 8-well plate. Subsequently, membranes were washed with Wash Buffer and incubated with appropriate Detection Antibody cocktails for 2 h at RT. Streptavadin-HRP (1:2000) was added onto membranes and incubated for 30 min at RT. Membranes were washed, and Chemiluminescent Detection Reagents 1&2 were applied in equal volumes for detection. The signals were detected on C-DiGit®Blot Scanner (LI-COR, Odyssey Imaging Systems, Lincoln, Nebraska, USA) using Image Studio 5.0 software.

O=C(Cc1ccc(NC(=O)c2cccc(Cl)c2)cc1)NCc1ccccc1 [Compound 4e, N-(4-(2-(benzylamino)-2-oxoethyl)phenyl)-3-chlorobenzamide]
Mean Final Score [1]: 1.2290
Mean Kinase Statistic [1]: -0.5054
Mean Significance Score [1]: 0.8208
Mean Specificity Score [1]: 0.4082
Mean Final Score [2]: 0.7362
Mean Kinase Statistic [2]: -0.3552
Mean Significance Score [2]: 0.6625
Mean Specificity Score [2]: 0.0736
decrease of Hsp27 Ser78 and Ser82 phosphorylation ([3]; HL60, versus control): 92.3%
phosphokinase signal after 4e exposure, HSP27 ([3]; HL60 cell lysate, treated): 3.71
% Change, HSP27 ([3]; treated vs untreated HL60): -92.31%
Change in Signal, HSP27 ([3]; treated vs untreated HL60): -44.51
